Assay results taken from patent US10806140B2, “Antimicrobial compound” (Physical Sciences, Inc., priority 2018, dated 2020).

What was measured:
[1] = test system: S. aureus; experiment: AATCC 100 antimicrobial test of derivatized fabrics, S. aureus; assay type: cell-based; settings: for % Kill at 4 hours / % Kill at 24 hours: dendrimer attached to cotton fabric, S. aureus; for % kill at 4 hrs.: direct functionalization, ~1×10^6 CFU/mL; for % Kill of laundered fabric (4 hrs.): derivatized cotton
Procedure: The antimicrobial testing during this effort was performed. […] The mixture is incubated for selected times. The mixture is then diluted with PBS and a bacterial culture (agar plate) is performed. The colony forming units (CFUs) are determined and the results are expressed as kill efficiency (percentage kill relative to the initial concentration).

[2] = test system: K. pneumoniae; experiment: AATCC 100 antimicrobial test of fabrics, K. pneumoniae; assay type: cell-based; settings: for AM efficacy against K. Pneumoniae (FIG. 37): derivatized cotton swatches
Procedure: (§1) The antimicrobial testing during this effort was performed. The evaluation of the AM efficacy has been performed using a standard method, based on the AATCC 100 protocol.
(§2) The experimental procedure starts with 1 mL of a bacterial culture (S. aureus representative for Gram positive bacteria or K. pneumoniae representative for Gram negative bacteria) which is inoculated to 2-3 fabric swatches (full absorption). The mixture is incubated for selected times. The mixture is then diluted with PBS and a bacterial culture (agar plate) is performed. The colony forming units (CFUs) are determined and the results are expressed as kill efficiency (percentage kill relative to the initial concentration).
The silver fabrics are considered to be the state-of the art in the realm of AM textiles. Two silver-based consumer products (cotton fabrics) were selected for evaluation of their AM properties compared to those of QAC-I derivatized cotton. The first material comprised a silver-shirt which contained silver nanoparticles. The second material was a silver-towel which contained a permanent coating of silver ions. Swatches of both products were generated and the antimicrobial efficacy was tested using the AATCC 100 protocol (K. Pneumoniae at 4, 24 and 48 hrs. time points).

[3] = test system: S. Epidermisis; experiment: Broad spectrum AM testing of derivatized cotton, S. Epidermisis; assay type: cell-based; settings: derivatized cotton fabrics
Procedure: as §1, §2
(§3) The QAC-I derivatized cotton fabrics were evaluated against several strains of Gram positive and Gram negative bacteria and one fungus (C. Albicans).

[4] = test system: C. Albicans; experiment: Broad spectrum AM testing of derivatized cotton, C. Albicans; assay type: cell-based; settings: derivatized cotton fabrics
Procedure: as §1, §2, §3

[5] = test system: C. Difficile (vegetative); experiment: Additional AM testing of derivatized cotton, C. Difficile vegetative cells; assay type: cell-based; settings: derivatized cotton fabrics
[6] = test system: C. Difficile (spores); experiment: Additional AM testing of derivatized cotton, C. Difficile spores; assay type: cell-based; settings: derivatized cotton fabrics
[7] = test system: MRSA; experiment: Additional AM testing of derivatized cotton, MRSA; assay type: cell-based; settings: derivatized cotton fabrics
[8] = test system: MS2; settings: derivatized cotton fabrics
Excerpt: Cotton fabrics derivatized with imidazolium dendrimer were further evaluated for the AM efficacy against other pathogens.

[9] = test system: skin of New Zealand White rabbits; experiment: Direct Primary Skin Irritation Test - ISO; assay type: in vivo
Procedure: Cotton fabrics derivatized with QAC-I dendrimer was evaluated at Toxikon for skin irritation using a GLP protocol based on “Direct Primary Skin Irritation Test—ISO”. The test article was evaluated for its potential to produce primary skin irritation after a single topical minimum 4 hour application to the skin of New Zealand White rabbits. Test sites were scored for erythema and/or edema.

[10] = test system: E. Coli; experiment: JIS Z 2801 antimicrobial test of metallic coupons, E. Coli; assay type: cell-based; settings: clear anodized aluminum coupon, front side; vs control without dendrimer; 24 hours
Procedure: The AM testing was performed using the standardized JIS Z 2801 method against the Gram negative, E. Coli bacteria. A summary of the procedure is presented below:
The test microorganism is prepared, usually by growth in a liquid culture medium. • The suspension of test microorganism is standardized by dilution in a nutritive broth (this affords microorganisms the opportunity to proliferate during the test). • Control and test surfaces are inoculated with microorganisms, and then the microbial inoculum is covered with a thin, sterile film. Covering the inoculum spreads it, prevents it from evaporating, and ensures close contact with the antimicrobial surface. • Microbial concentrations are determined at “time zero” by elution followed by dilution and plating to agar. • A control is run to verify that the neutralization/elution method effectively neutralizes the antimicrobial agent in the antimicrobial surface being tested. • Inoculated, covered control and antimicrobial test surfaces are allowed to incubate undisturbed in a humid environment for 24 hours, usually at body temperature. • After incubation, microbial concentrations are determined. Reduction of microorganisms relative to the control surface is calculated.

CCCCCCCCCCn1cc[n+](CCNC(=O)NCCCNC(=O)CCN(CCCNC(=O)CCN(CCC(=O)NCCCN(CCC(=O)NCCCNC(=O)NCC[n+]2ccn(CCCCCCCCCC)c2C)CCC(=O)NCCCNC(=O)NCC[n+]2ccn(CCCCCCCCCC)c2C)CCc2ccc(Nc3nc(Cl)nc(Cl)n3)cc2)CCC(=O)NCCCNC(=O)NCC[n+]2ccn(CCCCCCCCCC)c2C)c1C.[Cl-].[Cl-].[Cl-].[Cl-] [QAC-I]
% Kill at 4 hours [1]: >99% | % Kill at 24 hours [1]: >99% | % kill at 4 hrs. ([1]; derivatized NYCO fabric): > 99% | AM Efficacy (max.) ([1]; derivatized cotton fabrics, S. Aureus): >99.999% | % Kill of laundered fabric (4 hrs.) ([1]; reverse protocol, laundering detergent None, S. Aureus, % kill relative to final amount of bacteria): >99.99% | % Kill of laundered fabric (4 hrs.) ([1]; 1 accelerated cycle 45 minutes at 49° C., Tide 0.23% w/v, S. Aureus): 24% | % Kill of laundered fabric (4 hrs.) ([1]; 1 accelerated cycle 45 minutes at 49° C., Tween-20 0.23% w/v, S. Aureus): >99.99% | % kill at 4 hrs. ([1]; derivatized polyester fabric): > 99% | AM Efficacy (max.) ([2]; derivatized cotton fabrics, K. Pneumoniae): >99.99% | AM efficacy against K. Pneumoniae (FIG. 37) [2]: very high efficacy | AM Efficacy (max.) [3]: >99.99% | AM Efficacy (max.) [4]: >99.99% | % Reduction [5]: 99.20% | % Reduction [6]: 99.82% | % Reduction [7]: 99.80% | % Reduction [8]: 99.95% | Skin irritation classification ([9]; criteria of the protocol): negligible irritant | Edema score ([9]; test sites, 24 Hours, Site 1): 0/0 | Erythema score ([9]; test sites, 24 Hours, Site 1): 0/0 | Edema score ([9]; test sites, 24 Hours, Site 2): 0/0 | Erythema score ([9]; test sites, 24 Hours, Site 2): 0/0 | Edema score ([9]; test sites, 48 Hours, Site 1): 0/0 | Erythema score ([9]; test sites, 48 Hours, Site 1): 0/0 | Edema score ([9]; test sites, 48 Hours, Site 2): 0/0 | Erythema score ([9]; test sites, 48 Hours, Site 2): 0/0 | Edema score ([9]; test sites, 60 Minutes, Site 1): 0/0 | Erythema score ([9]; test sites, 60 Minutes, Site 1): 0/0 | Edema score ([9]; test sites, 60 Minutes, Site 2): 0/0 | Erythema score ([9]; test sites, 60 Minutes, Site 2): 0/0 | Edema score ([9]; test sites, 72 Hours, Site 1): 0/0 | Erythema score ([9]; test sites, 72 Hours, Site 1): 0/0 | Edema score ([9]; test sites, 72 Hours, Site 2): 0/0 | Erythema score ([9]; test sites, 72 Hours, Site 2): 0/0 | Total (Erythema + Edema Scores)/(2 Test Sites × 3 Observation Points) ([9]; test sites, per animal, 60 minute scores not included): 0.0

CCCCCCCCCCCC[N+](C)(CCCCCCCCCCCC)CCNC(=O)NCCCNC(=O)CCN(CCCNC(=O)CCN(CCC(=O)NCCCN(CCC(=O)NCCCNC(=O)NCC[N+](C)(CCCCCCCCCCCC)CCCCCCCCCCCC)CCC(=O)NCCCNC(=O)NCC[N+](C)(CCCCCCCCCCCC)CCCCCCCCCCCC)CCc1ccc(Nc2nc(Cl)nc(Cl)n2)cc1)CCC(=O)NCCCNC(=O)NCC[N+](C)(CCCCCCCCCCCC)CCCCCCCCCCCC.[Cl-].[Cl-].[Cl-].[Cl-] [QAC-D]
% Kill at 4 hours [1]: −38%

CCCCCCCCCCn1cc[n+](CCNC(=O)NCCCNC(=O)CCN(CCCNC(=O)CCN(CCC(=O)NCCCN(CCC(=O)NCCCNC(=O)NCC[n+]2ccn(CCCCCCCCCC)c2C)CCC(=O)NCCCNC(=O)NCC[n+]2ccn(CCCCCCCCCC)c2C)CCc2ccc(NC(=O)CP(=O)(O)O)cc2)CCC(=O)NCCCNC(=O)NCC[n+]2ccn(CCCCCCCCCC)c2C)c1C.[Cl-].[Cl-].[Cl-].[Cl-] [AM compound (1)]
log reduction of the inoculum [10]: > 6 log | reduction of the inoculum (%) [10]: > 99.9999%

CCCCCCCCCCCCCCCCCC[N+](C)(C)CCNC(=O)NCCCNC(=O)CCN(CCCNC(=O)CCN(CCC(=O)NCCCN(CCC(=O)NCCCNC(=O)NCC[N+](C)(C)CCCCCCCCCCCCCCCCCC)CCC(=O)NCCCNC(=O)NCC[N+](C)(C)CCCCCCCCCCCCCCCCCC)CCc1ccc(Nc2nc(Cl)nc(Cl)n2)cc1)CCC(=O)NCCCNC(=O)NCC[N+](C)(C)CCCCCCCCCCCCCCCCCC.[Cl-].[Cl-].[Cl-].[Cl-] [QAC-C18]
% Kill at 4 hours [1]: 78% | % Kill at 24 hours [1]: 11%

CCCCCCCCCCCC[N+](C)(C)CCNC(=O)NCCCNC(=O)CCN(CCCNC(=O)CCN(CCC(=O)NCCCN(CCC(=O)NCCCNC(=O)NCC[N+](C)(C)CCCCCCCCCCCC)CCC(=O)NCCCNC(=O)NCC[N+](C)(C)CCCCCCCCCCCC)CCc1ccc(Nc2nc(Cl)nc(Cl)n2)cc1)CCC(=O)NCCCNC(=O)NCC[N+](C)(C)CCCCCCCCCCCC.[Cl-].[Cl-].[Cl-].[Cl-] [QAC-4]
% Kill at 4 hours [1]: >99% | % Kill at 24 hours [1]: 62% | AM efficacy against K. Pneumoniae (FIG. 37) [2]: very high efficacy
